Data published in patent publication US7625889B2, “Substituted bis aryl and heteroaryl compounds as selective 5HT2A antagonists” (Aventis Pharmaceuticals Inc., priority 2005, dated 2009).
Where a name gives a salt, the structure may show the parent alone.

biological target: T1, human 5HT2A receptor (Homo sapiens, UniProt P28223); assay: Receptor Binding Assay, 5HT2A ([3H]N-methyl spiperone); details: BHK cells expressing human 5HT2A receptor, 2.5 nM [3H]N-methyl spiperone, 37° C.
T1 construct: expressed in transfected cells
T1 sequence (P28223 whole entry): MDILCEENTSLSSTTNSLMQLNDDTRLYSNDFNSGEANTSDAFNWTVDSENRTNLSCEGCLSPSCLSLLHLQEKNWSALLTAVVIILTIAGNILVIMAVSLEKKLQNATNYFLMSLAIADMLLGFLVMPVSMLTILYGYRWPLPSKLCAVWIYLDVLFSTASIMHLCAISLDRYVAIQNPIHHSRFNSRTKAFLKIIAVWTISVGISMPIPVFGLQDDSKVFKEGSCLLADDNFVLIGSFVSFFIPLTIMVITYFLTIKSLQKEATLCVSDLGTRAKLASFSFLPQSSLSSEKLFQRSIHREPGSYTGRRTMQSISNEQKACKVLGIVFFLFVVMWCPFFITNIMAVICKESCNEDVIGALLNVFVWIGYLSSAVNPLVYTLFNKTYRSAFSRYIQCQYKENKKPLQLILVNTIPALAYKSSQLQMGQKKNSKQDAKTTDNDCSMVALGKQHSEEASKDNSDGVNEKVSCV
Method: Cell Culture: BHK cells stably expressing the human 5HT2A receptor were maintained in Dulbecco's Modified Eagle's Medium supplemented with […] Geneticin, 1% Sodium Pyruvate, 1% Pen-Strep and 10% Fetal Calf Serum, and treated with 5 mM sodium butyrate for 24 h to increase receptor expression before harvesting. Cells were harvested by mechanical scraping, washed with Phosphate Buffered Saline, and stored at −80° C. in 10% DMSO in 1 mg/mil aliquots until used. Protein determination was made according to Lowry.
Receptor Binding Assays: The 5HT2A and D2L assays were conducted at 37° C. in a Tris buffer containing salts (50 mM Tris Buffer, pH 7.7; 120 mM NaCl; 5 mM KCl; 2 mM CaCl2; 1 mM MgCl2). Cell membranes (previously prepared and frozen) were rapidly thawed. Membranes were diluted to an appropriate concentration (to produce 100 μg protein/assay point for 5HT2A, and 58 μg protein/assay point for D2L) in Tris buffer and homogenized. Assays were conducted on 96-well plates, using 2.5 and 1 nM [^3H]N-methyl spiperone as radioligand for 5HT2A and D2L assays, respectively. Plates were incubated at 37° C. in a shaking water bath for 30 and 60 min, for 5HT2A and D2L, respectively. Nonspecific binding was defined using 100 μM methylsergide and eticlopride, for 5HT2A and D2L, respectively.
Assays were terminated by rapid filtration through Millipore MAFB or MAFC (5HT2C) filter plates (presoaked in 50 mM Tris HCl, pH 7.7, with 0.1% Brij) using a Millipore Cell Harvester. The filter plates were then washed with ice-cold 50 mM Tris buffer, pH 7.7, and allowed to dry overnight. 50 μl of Microscint scintillation cocktail were added and the plates were counted in a Packard Topcount scintillation counter.
IC50 and Ki calculations were performed using nonlinear regression one-site competition analysis (GraphPad, Prism), with top and bottom limits held constant at 0% and 100% inhibition, respectively. The percent inhibition at each drug concentration was the average of duplicate determinations. Except where indicated, each determination was performed 2 to 5 times.

Structure (SMILES)	Ki
O=C(c1ccc(F)cc1)N(Cc1cc(-c2ccc3[nH]ccc3c2)ccc1F)[C@H]1CN2CCC1CC2 [Example 77, N-(1-Aza-bicyclo[2.2.2]oct-3R-yl)-4-fluoro-N-[2-fluoro-5-(1H-indol-6-yl)-benzyl]-benzamide]	0.49 nM
O=C(c1ccc(F)cc1)N(Cc1cc(-c2ccc3[nH]c(=O)oc3c2)ccc1F)C1CN2CCC1CC2 (centres unmarked) [Example 78]	0.76 nM
O=C(c1ccc(F)cc1)N(Cc1cc(-c2ccc3[nH]c(=O)oc3c2)ccc1F)[C@H]1CN2CCC1CC2 [Example 79]	0.61 nM
Fc1ccc(CN(Cc2cc(-c3ccc4[nH]nnc4c3)ccc2F)C[C@H]2CCCN2)cc1 [Example 80, [5-(1H-Benzothiazol-5-yl)-2-fluoro-benzyl]-(4-fluoro-benzyl)-pyrrolidin-2R-ylmethyl-amine trihydrochloride]	14.9 nM
Fc1ccc(CN(Cc2cc(-c3ccc4[nH]ncc4c3)ccc2F)C[C@@H]2CCCN2)cc1 [Example 81]	2 nM
Fc1ccc(CN(Cc2cc(-c3ccc4[nH]ncc4c3)ccc2F)C2CCNCC2)cc1 [Example 82]	0.51 nM
CNCCN(Cc1ccc(F)cc1)Cc1cc(-c2ccc3[nH]ncc3c2)ccc1F [Example 83, N-(4-Fluoro-benzyl)-N-[2-fluoro-5-(1H-indazol-5-yl)-benzyl]-N′-methyl-ethane-1,2-diamine]	0.82 nM
Fc1ccc(-c2ccc3[nH]nnc3c2)cc1CN(Cc1cccs1)C1CCNCC1 [Example 84, [5-(1H-Benzotriazol-5-yl)-2-fluoro-benzyl]-piperidin-4-yl-thiophen-2-ylmethyl-amine]	0.37 nM
Fc1ccc(CN(Cc2cc(-c3ccc4[nH]nnc4c3)ccc2F)C2CCNCC2)cc1 [Example 85, [5-(1H-Benzotriazol-5-yl)-2-fluoro-benzyl]-(4-fluoro-benzyl)-piperidin-4-yl-amine]	0.42 nM
CNCCN(Cc1ccc(F)cc1)Cc1cc(-c2ccc3[nH]nnc3c2)ccc1F [Example 86, N-[5-(1H-Benzotriazol-5-yl)-2-fluoro-benzyl]-N-(4-fluoro-benzyl)-N′-methyl-ethane-1,2-diamine]	1.68 nM
CCN1CCC[C@H]1CN(Cc1ccc(F)cc1)Cc1cc(-c2ccc3[nH]nnc3c2)ccc1F [Example 87, [5-(1H-Benzotriazol-5-yl)-2-fluoro-benzyl]-(1-ethyl-pyrrolidin-2S-ylmethyl)-(4-fluoro-benzyl)-amine hydrochloride]	14.2 nM
CN1CCC(N(Cc2ccc(F)cc2)Cc2cc(-c3ccc4[nH]nnc4c3)ccc2F)CC1 [Example 88, [5-(1H-Benzotriazol-5-yl)-2-fluoro-benzyl]-(4-fluoro-benzyl)-(1-methyl-piperidin-4-yl)-amine hydrochloride]	1.16 nM
CN1CCC(N(Cc2ccc(F)cc2)Cc2cc(-c3ccc4[nH]c(=O)oc4c3)ccc2F)CC1 [Example 89, 6-(4-Fluoro-3-{[(4-fluoro-benzyl)-(1-methyl-piperidin-4-yl)-amino]-methyl}-phenyl)-3H-benzooxazol-2-one]	1 nM
CN1CCC(N(Cc2ccc(F)cc2)Cc2cc(-c3ccc4[nH]ncc4c3)ccc2F)CC1 [Example 90, (4-Fluoro-benzyl)-[2-fluoro-5-(1H-indazol-5-yl)-benzyl]-(1-methyl-piperidin-4-yl)-amine]	0.42 nM
CN1CCN(Cc2cc(-c3ccc4[nH]ccc4c3)ccc2F)C(c2ccco2)C1 (centres unmarked) [Example 93, 5-[4-Fluoro-3-(2-furan-2-yl-4-methyl-piperazin-1-ylmethyl)-phenyl]-1H-indole]	0.6 nM
CN1CCN(Cc2cc(-c3ccc4[nH]ncc4c3)ccc2F)[C@@H](c2ccc(F)cc2)C1 [Example 96, 5-{4-Fluoro-3-[2S-(4-fluoro-phenyl)-4-methyl-piperazin-1-ylmethyl]-phenyl}-1H-indazole]	0.89 nM
CN1CCN(Cc2cc(-c3ccc4[nH]c(=O)oc4c3)ccc2F)[C@@H](c2ccc(F)cc2)C1 [Example 97, 6-{4-Fluoro-3-[2S-(4-fluoro-phenyl)-4-methyl-piperazin-1-ylmethyl]-phenyl}-3H-benzooxazol-2-one]	0.77 nM
CN1CCN(Cc2cncc(-c3ccc4[nH]ncc4c3)c2)[C@@H](c2ccc(F)cc2)C1 [Example 99, 5-{5-[2S-(4-Fluoro-phenyl)-4-methyl-piperazin-1-ylmethyl]-pyridin-3-yl}-1H-indazole]	0.29 nM

Structure (SMILES)	Ki
O=C(c1ccc(F)cc1)N(CCCN1CCCC1)Cc1cc(-c2ccc3[nH]ncc3c2)ccc1F [Example 100, 4-Fluoro-N-[2-fluoro-5-(1H-indazol-5-yl)-benzyl]-N-(3-pyrrolidin-1-yl-propyl)-benzamide]	0.6 nM
O=C(c1ccc(F)cc1)N(CCN1CCCC1)Cc1cc(-c2ccc3[nH]nnc3c2)ccc1F [Example 101, N-[5-(1H-Benzotriazol-5-yl)-2-fluoro-benzyl]-4-fluoro-N-(2-pyrrolidin-1-yl-ethyl)-benzamide]	0.39 nM
CN1CCC(N(Cc2cc(-c3ccc4[nH]ncc4c3)ccc2F)C(=O)c2ccc(F)cc2)CC1 [Example 102, 4-Fluoro-N-[2-fluoro-5-(1H-indazol-5-yl)-benzyl]-N-(1-methyl-piperidin-4-yl)-benzamide]	0.88 nM
O=C(c1ccc(F)cc1)N(Cc1cc(-c2ccc3[nH]ncc3c2)ccc1F)[C@H]1CN2CCC1CC2 [Example 103, N-(1-Aza-bicyclo[2.2.2]oct-3R-yl)-4-fluoro-N-[2-fluoro-5-(1H-indazol-5-yl)-benzyl]-benzamide]	1.01 nM
CN1CCC(N(Cc2cc(-c3ccc4[nH]ccc4c3)ccc2F)C(=O)c2ccncn2)CC1 [Example 105, Pyrimidine-4-carboxylic acid [2-fluoro-5-(1H-indol-5-yl)-benzyl]-(1-methyl-piperidin-4-yl)-amide]	3.8 nM
CN1CCC(N(Cc2cc(-c3ccc4[nH]ccc4c3)ccc2F)C(=O)c2cccnn2)CC1 [Example 106, Pyridazine-3-carboxylic acid [2-fluoro-5-(1H-indol-5-yl)-benzyl]-(1-methyl-piperidin-4-yl)-amide]	9 nM
CN1CCC(N(Cc2cc(-c3ccc4[nH]ccc4c3)ccc2F)C(=O)c2ccnnc2)CC1 [Example 107, Pyridazine-4-carboxylic acid [2-fluoro-5-(1H-indol-5-yl)-benzyl]-(1-methyl-piperidin-4-yl)-amide]	85 nM
CN1CCC(N(Cc2cc(-c3ccc4[nH]ccc4c3)ccc2F)C(=O)c2ncccn2)CC1 [Example 108, Pyrimidine-2-carboxylic acid [2-fluoro-5-(1H-indol-5-yl)-benzyl]-(1-methyl-piperidin-4-yl)-amide]	16 nM
CC(C)Oc1ccc(C(=O)N(Cc2cc(-c3ccc4[nH]ccc4c3)ccc2F)C2CCN(C)CC2)cc1 [Example 110, N-[2-Fluoro-5-(1H-indol-5-yl)-benzyl]-4-isopropoxy-N-(1-methyl-piperidin-4-yl)-benzamide]	85 nM
CC(C)Oc1cccc(C(=O)N(Cc2cc(-c3ccc4[nH]ccc4c3)ccc2F)C2CCN(C)CC2)c1 [Example 111, N-[2-Fluoro-5-(1H-indol-5-yl)-benzyl]-3-isopropoxy-N-(1-methyl-piperidin-4-yl)-benzamide]	85 nM
CN1CCC(N(Cc2cc(-c3ccc4[nH]ccc4c3)ccc2F)C(=O)c2ccc(OC(F)(F)F)cc2)CC1 [Example 112, N-[2-Fluoro-5-(1H-indol-5-yl)-benzyl]-N-(1-methyl-piperidin-4-yl)-4-trifluoromethoxy-benzamide]	6 nM
Fc1ccc([C@H]2CNCCN2Cc2cncc(-c3ccc4[nH]ncc4c3)c2)cc1 [Example 113, 5-{5-[2S-(4-Fluoro-phenyl)-piperazin-1-ylmethyl]-pyridin-3-yl}-1H-indazole]	0.4 nM
Fc1ccc([C@H]2CNCCN2Cc2cncc(-c3ccc4[nH]ccc4c3)c2)cc1 [Example 114, 5-{5-[2S-(4-Fluoro-phenyl)-piperazin-1-ylmethyl]-pyridin-3-yl}-1H-indole acetate]	0.48 nM
Fc1ccc([C@H]2CNCCN2Cc2cc(-c3ccc4[nH]ccc4c3)co2)cc1 [Example 115, 5-{5-[2S-(4-Fluoro-phenyl)-piperazin-1-ylmethyl]-furan-3-yl}-1H-indole]	2.88 nM
Fc1ccc([C@H]2CNCCN2Cc2cc(-c3ccc4[nH]ncc4c3)co2)cc1 [Example 116, 5-{5-[2S-(4-Fluoro-phenyl)-piperazin-1-ylmethyl]furan-3-yl}-1H-indazole]	1.79 nM
O=c1[nH]c2ccc(-c3coc(CN4CCNC[C@@H]4c4ccc(F)cc4)c3)cc2o1 [Example 117, 6-{5-[2S-(4-Fluoro-phenyl)-piperazin-1-ylmethyl]-furan-3-yl}-3H-benzooxazol-2-one acetate]	4.79 nM
CN1CCC(N(Cc2ccc(F)cc2)Cc2cc(-c3ccc4[nH]c(=O)oc4c3)co2)CC1 [Example 118, 6-(5-{[(4-Fluoro-benzyl)-(1-methyl-piperidin-4-yl)-amino]-methyl}-furan-3-yl)-3H-benzooxazol-2-one]	1.1 nM
